The numbers were not newly measured in patent publication US20220160664A1, “TAZ ACTIVATORS AND WNT AGONISTS FOR TREATING EAR DISORDERS” (Frequency Therapeutics, Inc., priority 2019, published 2022), which cites them from elsewhere.

The target in this series is T1, KDM1b (Homo sapiens, UniProt Q8NB78).
T1 sequence (Q8NB78 1-822): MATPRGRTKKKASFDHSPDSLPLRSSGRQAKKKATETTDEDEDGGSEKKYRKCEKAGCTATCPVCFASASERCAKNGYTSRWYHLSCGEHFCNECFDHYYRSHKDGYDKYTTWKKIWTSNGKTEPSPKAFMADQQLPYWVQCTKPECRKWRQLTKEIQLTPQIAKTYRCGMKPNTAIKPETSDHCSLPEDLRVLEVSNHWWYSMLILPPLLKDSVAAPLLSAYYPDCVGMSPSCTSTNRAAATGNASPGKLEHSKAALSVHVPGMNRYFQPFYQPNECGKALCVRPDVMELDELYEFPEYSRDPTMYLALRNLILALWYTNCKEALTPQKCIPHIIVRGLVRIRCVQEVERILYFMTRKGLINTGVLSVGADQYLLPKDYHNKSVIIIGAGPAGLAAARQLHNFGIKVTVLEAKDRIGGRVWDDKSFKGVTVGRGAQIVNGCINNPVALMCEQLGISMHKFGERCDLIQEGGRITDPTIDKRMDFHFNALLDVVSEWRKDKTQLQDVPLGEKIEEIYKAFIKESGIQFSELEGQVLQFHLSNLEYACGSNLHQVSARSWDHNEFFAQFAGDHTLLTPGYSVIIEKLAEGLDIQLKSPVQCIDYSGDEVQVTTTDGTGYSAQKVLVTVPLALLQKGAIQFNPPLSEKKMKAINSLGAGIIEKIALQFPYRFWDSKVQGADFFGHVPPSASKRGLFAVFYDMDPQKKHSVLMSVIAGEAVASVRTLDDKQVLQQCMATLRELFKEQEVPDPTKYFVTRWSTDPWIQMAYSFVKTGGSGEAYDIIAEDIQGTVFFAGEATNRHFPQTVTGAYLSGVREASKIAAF
The note with it: Table 9; read-out: Select KDM1b; cited from earlier work.

`O=C(O)c1ccc(CN2CCC(CN[C@@H]3C[C@H]3c3ccccc3)CC2)cc1` [GSK-2879552]: the IC50 is 20 µM.
